# Values joined by “and” are separate entries in the source; they are usually repeats but may differ in a detail not shown here. Identical values can stand only once. Toxic doses and inconclusive results are not listed.
# System: L1210 leukemia ip in BDF1 mice, survival T/C
# Assay: NCI In Vivo Anticancer Drug Screen. Data for tumor model L1210 Leukemia (intraperitoneal) in B6D2F1 (BDF1) mice
# Details: endpoint: mean survival time, higher = longer survival
# Method in brief: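 Transplantable tumor model; survival measured in treated vs vehicle control mice. Value = treated/control.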
# [1] = dose: 25.0 mg/kg/injection, schedule: Q01DX009 (ip), vehicle: saline
# [2] = dose: 50.0 mg/kg/injection, schedule: Q01DX009 (ip), vehicle: saline
# [3] = dose: 100.0 mg/kg/injection, schedule: Q01DX001 (ip), vehicle: saline
# [4] = dose: 200.0 mg/kg/injection, schedule: Q01DX001 (ip), vehicle: saline
# [5] = dose: 100.0 mg/kg/injection, schedule: Q01DX009 (ip), vehicle: saline
# [6] = dose: 400.0 mg/kg/injection, schedule: Q01DX001 (ip), vehicle: saline
smiles,measurement,setting,value
CCN(CC)CC#N,T/C,"dose: 1.0 mg/kg/injection, schedule: Q01DX009 (ip), vehicle: saline",97 % of control
same,T/C,"dose: 2.0 mg/kg/injection, schedule: Q01DX009 (ip), vehicle: saline",99 % of control
same,T/C,"dose: 4.0 mg/kg/injection, schedule: Q01DX009 (ip), vehicle: saline",95 % of control
same,T/C,"dose: 8.0 mg/kg/injection, schedule: Q01DX009 (ip), vehicle: saline",100 % of control
CCN(CC)CCOc1ccccc1OC,T/C,"dose: 12.0 mg/kg/injection, schedule: Q01DX009 (ip), vehicle: saline",107 % of control
same,T/C,[1],101 % of control
same,T/C,[2],101 % of control
same,T/C,[3],93 % of control
same,T/C,[4],95 % of control
CCNc1ccc(F)cc1[N+](=O)[O-],T/C,"dose: 100.0 mg/kg/injection, schedule: Q01DX009 (ip), vehicle: saline sonified",110 % of control
same,T/C,"dose: 100.0 mg/kg/injection, schedule: Q04DX003 (ip), vehicle: Klucel (hydroxypropylcellulose) (HPC)",103 % of control
same,T/C,"dose: 200.0 mg/kg/injection, schedule: Q01DX009 (ip), vehicle: saline sonified",102 % of control
same,T/C,"dose: 200.0 mg/kg/injection, schedule: Q04DX003 (ip), vehicle: Klucel (hydroxypropylcellulose) (HPC)",104 % of control
same,T/C,"dose: 400.0 mg/kg/injection, schedule: Q01DX009 (ip), vehicle: saline sonified",102 % of control
same,T/C,"dose: 400.0 mg/kg/injection, schedule: Q04DX003 (ip), vehicle: Klucel (hydroxypropylcellulose) (HPC)",97 % of control
CCOC(=O)NP(=O)(N1CC1(C)C)N1CC1(C)C (stereo not given),T/C,"dose: 62.5 mg/kg/injection, schedule: Q01DX010 (ip), vehicle: saline",115 % of control and 120 % of control
same,T/C,"dose: 125.0 mg/kg/injection, schedule: Q01DX010 (ip), vehicle: saline",117 % of control
same,T/C,"dose: 250.0 mg/kg/injection, schedule: Q01DX010 (ip), vehicle: saline",151 % of control and 157 % of control
CC(=O)Nc1ccc(/C=C/c2ccc3ccccc3[n+]2C)cc1,T/C,"dose: 25.0 mg/kg/injection, schedule: Q01DX009 (ip), vehicle: saline with Tween-80",97 % of control
same,T/C,"dose: 25.0 mg/kg/injection, schedule: Q04DX003 (ip), vehicle: saline with Tween-80",101 % of control
same,T/C,"dose: 50.0 mg/kg/injection, schedule: Q01DX009 (ip), vehicle: saline with Tween-80",106 % of control
same,T/C,"dose: 50.0 mg/kg/injection, schedule: Q04DX003 (ip), vehicle: saline with Tween-80",98 % of control
same,T/C,"dose: 100.0 mg/kg/injection, schedule: Q04DX003 (ip), vehicle: saline with Tween-80",94 % of control
CC(C)(SCC(N)C(=O)O)C(N)C(=O)O (stereo not given),T/C,[3],95 % of control
same,T/C,[5],103 % of control
same,T/C,[4],90 % of control
same,T/C,"dose: 200.0 mg/kg/injection, schedule: Q01DX009 (ip), vehicle: saline",94 % of control
same,T/C,[6],87 % of control
same,T/C,"dose: 400.0 mg/kg/injection, schedule: Q01DX009 (ip), vehicle: saline",102 % of control
Nc1nc2c(ncn2-c2ccccc2Cl)c(=O)[nH]1,T/C,"dose: 100.0 mg/kg/injection, schedule: Q01DX001 (ip), vehicle: saline with Tween-80",95 % of control
same,T/C,"dose: 200.0 mg/kg/injection, schedule: Q01DX001 (ip), vehicle: saline with Tween-80",92 % of control
same,T/C,"dose: 400.0 mg/kg/injection, schedule: Q01DX001 (ip), vehicle: saline with Tween-80",100 % of control
Cc1cn(C2CC(F)C(CO)O2)c(=O)[nH]c1=O (stereo not given),T/C,"dose: 12.5 mg/kg/injection, schedule: Q01DX009 (ip), vehicle: saline",108 % of control
same,T/C,[1],102 % of control
same,T/C,[2],117 % of control
same,T/C,"dose: 78.0 mg/kg/injection, schedule: Q01DX009 (ip), vehicle: saline",107 % of control
same,T/C,[5],121 % of control
same,T/C,"dose: 130.0 mg/kg/injection, schedule: Q01DX009 (ip), vehicle: saline",115 % of control
same,T/C,"dose: 360.0 mg/kg/injection, schedule: Q01DX009 (ip), vehicle: saline",109 % of control
Nc1nc2ccccc2n1C1OC(CO)C(O)C1O (stereo not given),T/C,[3],101 % of control
same,T/C,[4],95 % of control
same,T/C,[6],104 % of control
S=C(SP(SC(=S)N1CCCCC1)SC(=S)N1CCCCC1)N1CCCCC1,T/C,"dose: 100.0 mg/kg/injection, schedule: Q04DX002 (ip), vehicle: saline",95 % of control
same,T/C,"dose: 200.0 mg/kg/injection, schedule: Q04DX002 (ip), vehicle: saline",89 % of control
same,T/C,"dose: 400.0 mg/kg/injection, schedule: Q04DX002 (ip), vehicle: saline",95 % of control

# From PubChem BioAssay AID248 (DTP/NCI, 2004)
